{
  "source": "patent US20090209605A1",
  "about": "“NEMATICIDAL COMPOSITIONS” (Devgen N.V., priority 2004, published 2009)",
  "format_in_all_cases": "in vivo",
  "key": {"Meloidogyne incognita": {"tested_on": "Meloidogyne incognita", "assay": "Root infestation on agar plate: root knot count on potato microplant roots", "settings": "60 μM in agar, galls counted 5 weeks after inoculation, four replicates", "description": "9 cm petri dishes were filled with a 15 ml agar. One stem cutting of a potato microplant (Solanum tuberosum cv. Desirée) was placed on top of the agar layer. After 2 to 3 weeks of incubation at 20° C., the root system was sufficiently developed to be inoculated.\nThe test compounds (see Table 1) were added 2 days before inoculation by way of spreading a 2 ml DMSO-solution with the compound over the agar and allowing the compound to diffuse in the agar during two days at constant temperature of 20° C. During incubation, the plates are protected from light in a dark incubator. The resulting concentration of each compound in each agar plate was 60 μM.\nAfter incubation, approximately 400 axenic juveniles of Meloidogyne incognita species were added to the plate.\nThe plates were incubated in the dark at a constant temperature of 20° C. and 5 weeks after inoculation the number of galls formed on the roots were determined by counting. Also any toxic effect of the test compounds on the roots was recorded. 8 weeks after inoculation the plates were stored at low temperature.\nEach compound was tested in four replicates. Positive controls were treated with different concentrations of Aldicarb, a known nematicide. Negative controls included 5 replicates of double negative controls (no compound, no nematode), 5 replicates of single negative controls (no compound, with nematode) and 5 replicates of DMSO controls (DMSO solution, with nematode)."}, "[1]": {"tested_on": "Meloidogyne incognita nematodes", "assay": "Pot Assay 1: Meloidogyne infection of potato, egg masses/galls on roots", "settings": "potato in pot, week 8 after inoculation", "description": "500 ml clay pots were filled with 400 ml of silver sand. One tuber of potato ( Solanum tuberosum cv. Bintje) was planted in the sand. After 2 to 3 weeks incubation, the potato plant was sufficiently developed to be inoculated.\nPlants were grown under the usual standard greenhouse conditions at 14° C.-18° C., with 16 hours light and 8 hours dark and 80-90% relative humidity. The pots were watered using individual drippers and fertilizers were added under the form of macro- and micro nutrients according to plant growth requirements. When needed, the plants were sprayed with fungicides and insecticides.\nThe compounds as described herein were added one day before inoculation. The compounds were dissolved in a 20 ml DMSO-solution and spread over the sand surface. The final concentration is calculated under the assumption that the compound is diffused entirely in the pot. This process occurred during two days at the normal greenhouse conditions described above.\nAfter compound incubation, approximately 1500 juveniles of Meloidogyne incognita nematodes were added to the pots.\nThe pots were incubated at the described greenhouse conditions until nematode development was completed. At week 8 after inoculation the number of galls formed on the roots was counted after washing off the sandy substrate. Also the effect of the compound on the plant development was recorded.\nEvery compound was tested in three replicates. Positive control plants were treated with different concentrations of aldicarb, a known nematicide. Negative controls involved 12 replicates of double negative controls (no compound, no nematode), 12 replicates of single negative controls (no compound, no DMSO, with nematode), 24 replicates of DMSO controls (DMSO solution, with nematode).\nAs assessment of the root development was taken into account."}, "[2]": {"tested_on": "root-knot nematode (Meloidogyne spp)", "assay": "Nematicide field trial on cucumber: root galling and yield", "settings": "for Average root galling: 0-5 Lamberti scale", "description": "Open ground grown cucumber (Cucumis sativus cv Carine) were grown on sandy soil with a natural root-knot nematode (Meloidogyne spp) population. Soil samples, collected prior to planting, contained on average 8 J2 juveniles per 100 g soil. A program of 4 applications with intervals of about 14 days was started six days after transplantation.\n(§1) An experimental pattern at Complete Randomized Blocks with four replicas was adopted. Besides the experimental products, each test also included an untreated control and a treatment with the standard commercial product VYDATE 10L (10%) applied in accordance to label instructions.\n[…] The level of nematode attack of the root system at the time of harvesting was assessed by means of the lamberti scoring."}, "[3]": {"tested_on": "stubby root nematodes (Paratrichodorus), stunt nematodes (Tylenchorhynchus spp.), root lesion nematodes (Pratylenchus spp.) and root knot nematodes …", "assay": "Nematicide field trial on carrots: % deformed carrots", "description": "Garden carrots were grown in the open field. The soil contained high levels of stubby root nematodes (Paratrichodorus), stunt nematodes (Tylenchorhynchus spp.), root lesion nematodes (Pratylenchus spp.) and root knot nematodes (Meloidogyne spp.).\nas §1\nIn carrots, nematodes cause deformation such as stunting, dwarfing, twisting, splitting and bearding. For these experiments, the total percentage of deformed carrots were considered, as these are not marketed for human consumption and are of no commercial interest.\nThree different tests have been performed (Tables 9, 10 and 11), each containing an untreated and commercial reference control. All treatments were statistically different from untreated control."}, "Heterodera nematode": {"tested_on": "Heterodera nematode", "assay": "Pot Assay 3: Heterodera infection of sugar beet, crop vigor and crop height", "settings": "infested soil", "excerpt": "The soil used in this assay originated from a Heterodera nematode infested sugar plot of which the infestation was confirmed by means of several soil analyses. Each pot was filled up with a soil mixture composed as follows: a) the infested soil was constituted by silt loam soil (about 600 g/pot) mixed with sterile peat (about 600 g/pot) and sterile cork (about 200 g/pot); b) the sterile soil was instead constituted only by sterile peat (1200 g/pot) and sterile cork (200 g/pot).\n(§2) Each compound or compound mixture as described herein was tested in 4 different rates with 4 replicates per rate. One pot per replicate was used in which 18 beava sugar beet seeds (variety GEA (KWS)) were sown. After crop germination, the number of plants was reduced to 10 plants. The 4 rates added to the soil of the tested compounds or compound mixtures were 0.05 mg, 0.20 mg, 1 mg and 5 mg. These amounts translate to field application rates respectively as 30, 120, 600 and 3000 g per hectare.\nEfficacy of the compounds described herein as nematicide was measured by visual inspection of the crop vigor and the crop height. The crop vigor evaluation is based on a 0-100 scale, where 0 is “no vigor” and 100 is “maximum vigor”. The crop height development is based on a measurement, in cm, per plant, excluding the root system.\nPositive control plants were treated with Oxamyl (Vydate 5 G, 5% gr) at a rate of 40 kg fp per ha. Negative controls involved single negative controls (no compound, with nematode infested soil; referenced as “Untreated 1”) and double negative controls (no compound, sterile soil; referenced as “Untreated 2”)."}, "[4]": {"tested_on": "sugar beet (variety GEA (KWS))", "assay": "Pot Assay 3: phytotoxicity, number of sugar beet plants emerged", "description": "as §2\nPhytotoxicity assessments were carried by assessing any possible effects of the chemicals on the crop, such as chlorosis, yellowing, stunting, in comparison to the untreated control without nematodes."}, "[5]": {"tested_on": "root-knot nematode (Meloidogyne spp)", "assay": "Nematicide field trial on tomato: root galling and yield", "settings": "for Average root galling: 0-5 Lamberti scale", "description": "Open field tomatoes (Lycopersicon esculentum, variety incas) were grown on sandy soil with a natural root-knot nematode (Meloidogyne spp) population. Soil samples, collected prior to planting, contained on average 113 J2 juveniles per 100 g soil. A program of 5 applications with intervals of about 14 days was started two days after transplantation.\nas §1\nThe read-outs are the average yield of the marketable tomatoes per plant (Table 7). The level of nematode attack of the root system at the time of harvesting was assessed by means of the lamberti scoring."}, "[6]": {"settings": "Product Rate 4 (footnote g ai/ha)"}, "[7]": {"settings": "Product Rate 8 (footnote g ai/ha)"}},
  "data": [
    {"smiles": "Cc1cc(C2CC2)nc(Nc2ccccc2)n1", "note": "[XLIV]", "values": [
      {"measurement": "Root knot count, average of the replicate counts", "setting": "Meloidogyne incognita", "result": 9.5},
      {"measurement": "number of egg masses (galls) on roots, Replicate 3", "setting": "[1]; 0.5 μM", "result": 5},
      {"measurement": "number of egg masses (galls) on roots, Replicate 1", "setting": "[1]; 2 μM", "result": 20},
      {"measurement": "number of egg masses (galls) on roots, Replicate 3", "setting": "[1]; 2 μM", "result": 15},
      {"measurement": "number of egg masses (galls) on roots, Replicate 1", "setting": "[1]; 10 μM", "result": 20},
      {"measurement": "number of egg masses (galls) on roots, Replicate 1", "setting": "[1]; 50 μM", "result": 15},
      {"measurement": "number of egg masses (galls) on roots, Replicate 2", "setting": "[1]; 50 μM", "result": 25},
      {"measurement": "number of egg masses (galls) on roots, Replicate 3", "setting": "[1]; 50 μM", "result": 5},
      {"measurement": "Average yield of marketable fruits", "setting": "[2]; Product Rate 500 g ai/ha", "result": 7.3, "unit": "kg/plant/pot"},
      {"measurement": "Average root galling", "setting": "[2]; Product Rate 500 g ai/ha", "result": 2.5},
      {"measurement": "Average yield of marketable fruits", "setting": "[2]; Product Rate 1500 g ai/ha", "result": 8.3, "unit": "kg/plant/pot"},
      {"measurement": "Average root galling", "setting": "[2]; Product Rate 1500 g ai/ha", "result": 2.5},
      {"measurement": "% total deformed", "setting": "[3]; test of Table 9, Product Rate 500 g ai/ha", "result": 37.41, "unit": "%"},
      {"measurement": "% total deformed", "setting": "[3]; test of Table 9, Product Rate 1500 g ai/ha", "result": 44.85, "unit": "%"},
      {"measurement": "% total deformed", "setting": "[3]; test of Table 9, Product Rate 3000 g ai/ha", "result": 37.10, "unit": "%"}
    ]},
    {"smiles": "CC(C)[C@@H](Nc1ccc(C(F)(F)F)cc1Cl)C(=O)OC(C#N)c1cccc(Oc2ccccc2)c1", "note": "(stereo partly drawn) [XXXVI]", "values": [
      {"measurement": "crop height (cm)", "setting": "Heterodera nematode; Rate 0.05 mg", "result": 9, "unit": "cm"},
      {"measurement": "crop vigor (max 100%)", "setting": "Heterodera nematode; Rate 0.05 mg", "result": 70, "unit": "%"},
      {"measurement": "crop height (cm)", "setting": "Heterodera nematode; Rate 0.2 mg", "result": 14, "unit": "cm"},
      {"measurement": "crop vigor (max 100%)", "setting": "Heterodera nematode; Rate 0.2 mg", "result": 100, "unit": "%"},
      {"measurement": "crop height (cm)", "setting": "Heterodera nematode; Rate 1 mg", "result": 15, "unit": "cm"},
      {"measurement": "crop vigor (max 100%)", "setting": "Heterodera nematode; Rate 1 mg", "result": 100, "unit": "%"},
      {"measurement": "crop height (cm)", "setting": "Heterodera nematode; Rate 5 mg", "result": 13, "unit": "cm"},
      {"measurement": "crop vigor (max 100%)", "setting": "Heterodera nematode; Rate 5 mg", "result": 90, "unit": "%"},
      {"measurement": "# crops emerged (max 18)", "setting": "[4]; Rate 0.05 mg", "result": 18},
      {"measurement": "# crops emerged (max 18)", "setting": "[4]; Rate 0.2 mg", "result": 18},
      {"measurement": "# crops emerged (max 18)", "setting": "[4]; Rate 1 mg", "result": 18},
      {"measurement": "# crops emerged (max 18)", "setting": "[4]; Rate 5 mg", "result": 18},
      {"measurement": "Root knot count, average of the replicate counts", "setting": "Meloidogyne incognita", "result": 0},
      {"measurement": "Average yield of marketable fruits", "setting": "[2]; Product Rate 250 g ai/ha", "result": 9.3, "unit": "kg/plant/pot"},
      {"measurement": "Average root galling", "setting": "[2]; Product Rate 250 g ai/ha", "result": 1.88},
      {"measurement": "Average yield of marketable fruits", "setting": "[2]; Product Rate 500 g ai/ha", "result": 9.6, "unit": "kg/plant/pot"},
      {"measurement": "Average root galling", "setting": "[2]; Product Rate 500 g ai/ha", "result": 1.63},
      {"measurement": "Average yield of marketable fruits", "setting": "[5]; [6]", "result": 1.43, "unit": "kg/plant/pot"},
      {"measurement": "Average root galling", "setting": "[5]; [6]", "result": 1.8},
      {"measurement": "Average yield of marketable fruits", "setting": "[5]; [7]", "result": 1.26, "unit": "kg/plant/pot"},
      {"measurement": "Average root galling", "setting": "[5]; [7]", "result": 1.8}
    ]}
  ]
}
